The values that follow come from patent publication US9101628B2, “Methods and composition of treating a flaviviridae family viral infection” (The Board of Trustees of the Leland Stanford Junior …, priority 2007, dated 2015).

Each structure is given as a SMILES string. Read-outs that look alike come from different tables or passages of the source.

Data set [1] addresses hERG channel (Homo sapiens, UniProt Q12809).
Data set [2] relates to subgenomic Bart 79I HCV RNA replicon (genotype 1b). In words: microbe, parasite or virus in culture. It counts as cell-based. The settings on record: Hepatitis C virus; genotype 1b luciferase reporter, 72 hr; read-out: EC50 HCV replication.
Data set [3] deals with NS4B (binding to 3′ terminus negative strand HCV RNA) (Hepatitis C virus genotype 1a, UniProt P27958). In words: In vitro microfluidic NS4B RNA binding assay. Particulars: wild type NS4B, 10 nM clemizole.
The test system of data set [4] is R214Q NS4B mutant HCV. In words: Luciferase reporter linked replication assay, R214Q mutant. In kind it is cell-based. (In general: In a reporter assay the amount or activity of a reporter protein is the signal.)
In data set [5] the test system is W55R mutant J6/JFH RNA. In words: Luciferase reporter-linked replication assay, W55R mutant. It counts as cell-based, HCV. An excerpt: Two of the clemizole-resistant NS4B mutants were characterized in detail. The first, W55R is depicted in FIG. 6a. It involves the substitution of an arginine for the tryptophan at amino acid 55 within a predicted cytoplasmically-oriented segment of NS4B. This mutation is sufficient to confer a clemizole-resistant phenotype in cells: Huh7.5 cells transfected with either whole cell RNA extracted from the W55R mutant cells (FIG. 6b) or with in vitro-transcribed J6/JFH RNA encoding this point mutation and a linked luciferase reporter gene (FIG. 6c) were unaffected by 10 μM clemizole.
The plasmid FL-J6/JFH-5′C19Rluc2AUbi that consists of the full-length HCV genome and expresses Renilla luciferase was a gift from Dr. Charles M. Rice. The W55R mutation was introduced into this plasmid by site-directed mutagenesis (using the QuikChange kit (Stratagene)).
Medium was changed daily.

In data set [6] the target is T1, W55R NS4B mutant (Hepatitis C virus genotype 1a, UniProt P27958, A1893V/D1840G/F1898S/L1839I/R1905H/S1900A/W1766R).
T1 construct: made in house; host or cells: in vitro transcription/translation, inferred from the way wild-type NS4B-GFP was made; not repeated for the mutant
As to the kind of experiment: In vitro microfluidic RNA binding assay, W55R NS4B mutant. Further details: species or system HCV. Particulars: 10 nM clemizole.

The subject of data set [7] is genotype 1b subgenomic HCV replicon (Bart 79I). In kind it is cell-based.
The test system of data set [8] is infectious HCV clone (J6/JFH). As to the kind of experiment: Real-time PCR assay of HCV replication in HCV-infected Huh7.5 cells. In kind it is cell-based. Particulars: real-time PCR (FIG. 8). The protocol:
5×10^4 Huh7.5 ells were infected with cell culture-grown HCV titered at 1.4×10^4 TCID50/ml, as described. 2 hours after infection, cells were washed three times in culture medium. Cells were then treated daily with various concentrations of clemizole. After 72 hours, samples were subjected to the viability assay described above, following which TRIzol Reagent (Invitrogen) was added and total cell RNA was extracted in triplicates according to the manufacturer's instructions. Reverse transcription was then performed using random hexamers and Superscript II reverse transcriptase (Invitrogen, Carlsbad, Calif.). Real-time PCR was performed on the resulting cDNA to quantify the amounts of HCV and actin RNA (in separate reactions) in each sample. Standards were made using an in vitro-transcribed HCV RNA and human actin standard (Applied Biosystems, Foster City, Calif.). HCV was quantified using primers […] (SEQ ID NO 8) and […] (SEQ ID NO 9) and probe 6-carboxyfluorescein-[…]-6 (SEQ ID NO 10) carboxytetramethylrhodamine. Actin was quantified using beta-actin control reagents (Applied Biosystems) according to the manufacturer's instructions. HCV RNA level was adjusted to actin level and normalized relative to untreated samples.
(Quantitative PCR measures a nucleic acid by following its amplification.)

Data set [9] concerns HCV (genotype 4). In words: Treatment of patients chronically infected with HCV. In kind it is in vivo, human. Particulars: clemizole 100 milligrams p.o. BID alone, 4 weeks, 3 patients. The protocol: After the first four weeks of clemizole monotherapy, pegylated interferon (180 micrograms Pegasus (Roche) s.q. per week) was added.
Data set [10] concerns Huh7.5 cells. As to the kind of experiment: Alamar Blue-based cell viability assay. Details: species or system human. Particulars: at antiviral concentrations, Alamar Blue, 72 hr. The procedure: (§1) Total volume per well is 100 μl.
(§2) (or until there is a color change).
A general note: Alamar Blue is a resazurin reagent that responds to reducing activity.

Data set [11] is described as follows: Alamar Blue-based cell viability assay. Particulars: human. Details: species or system human. The protocol:
as §1, §2

Data set [12] relates to replicon harboring the A156T mutation. In words: Whole cell RNA electroporation, SCH503034 resistant clone. It counts as cell-based, HCV.
Data set [13] concerns replicon harboring the W55R mutation. In words: Whole cell RNA electroporation, clemizole resistant clone. In kind it is cell-based, HCV. The settings on record: 10 μM clemizole; 2.5 μM SCH503034. The procedure: Whole cell RNA was extracted from clemizole-resistant replicon clones and from untreated replicon cells using TRIzol reagent (Invitrogen). Equal amounts of whole cell RNA (50 μg) were electroporated into Huh7.5 cells as described above. Cells were grown under G418 selection in the presence or absence of clemizole for 3 weeks. The number of colonies was determined using Image J (NIH) following fixation and staining with Crystal violet.
Cells transfected with whole cell RNA extracted from wild type replicon cells were sensitive to both drugs.

Data set [14] addresses T2, HuR (Homo sapiens, UniProt Q15717).
T2 construct: The open reading frames (ORF) of HuR and HuD were obtained from the ORFeome library of cDNA clones (Open biosystems); V5-his (C); made in house; host or cells: cell-free expression on the microfluidic device, from pcDNA-Dest 40 carrying the ORFeome clone (Open Biosystems)
As to the kind of experiment: HuR RNA binding by microfluidics (specificity of hits). Particulars: 0.1 mM. The protocol: Specificity of hits identified in the small molecule screen: To determine the specificity of the hits identified in the small molecule screen, the HuR protein (one of the human RNA binding protein used to validate our RNA binding assay) was selected. […] Binding of HuR to the consensus 4A RNA sequence was tested in the presence of the inhibitory molecules shown to inhibit RNA binding by NS4B. […] Similarly, 0.1 mM of the identified compounds didn't have an inhibitory effect on binding of HuR to the 3′ terminus of the negative HCV RNA strand.

For orientation: IC50 means the concentration at which inhibition is half-maximal. Read a high IC50 as lower potency. Regarding `COc1ccc(Cn2cnc3c(NS(C)(=O)=O)c(C)c(C)cc32)cc1` [Compound 106], in [1], the IC50 was more than 10 µM.
For orientation: EC50 means the concentration needed to bring the measured effect to its halfway point. The CC50 is the concentration giving 50% cytotoxicity. A high value points to better tolerance by the cells. Take `Clc1ccc(Cn2c(CN3CCCC3)nc3ccccc32)cc1` [clemizole]: the EC50 in data set [2] came out at 23 ± 7 µM. In addition, the “reduction of RNA binding” value in data set [3] and in [6] was approximately 2 fold throughout. In addition, the “EC50 relative to the EC50 on the wild type RNA” value in data set [4] was approximately 5 times; in data set [5] (W55R mutant) it was 2.25 times. The “effect on replication of W55R mutant” value in data set [5] (10 μM clemizole) is recorded as “unaffected”. Also, the “decrease of the frequency of resistant colonies selected with 1 μM of SCH503034” value turned out to be 6 folds in [7] (4 μM clemizole added) and 18 folds in [7] (8 μM clemizole added). In addition, in data set [8], the HCV replication levels entry is recorded as “inhibits HCV replication”. Also, the “HCV viral loads in serum” value in [9] is on record as “decreased significantly”. Moreover, the cellular toxicity entry in data set [10] was “no measurable toxicity”. Moreover, the cytotoxic concentration (CC50) at 72 h in [11] (genotype 1b experiments, Alamar Blue, 72 hr) came to 40 ± 5 µM; in [11] (genotype 2a experiments, Alamar Blue-based and CellTiter-Blue assay) it was 35 ± 0.5 µM. Besides, the “sensitivity of Huh7.5 cells transfected with whole cell RNA from A156T clone” value in data set [12] was “but not to clemizole”. The “sensitivity of Huh7.5 cells transfected with whole cell RNA from W55R clone” value in data set [13] is recorded as “unaffected”. For the same compound, in data set [14], the “effect on binding of HuR to 4A RNA sequence” value is “No inhibitory effect”.
